pIC50: −log10 of the molar value. Calls of active or inactive are those of the source. The rule behind the calls is not given here.

The experiment concerns the target X-box-binding protein 1 (Homo sapiens) (UniProt P17861). Put plainly: inhibitors of XBP1 reporter signal, dose response, counter-screen, cell-based (AID 504313).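 Note: CHO cells carrying an XBP1 reporter stimulated with tunicamycin; potency is for inhibition of the tunicamycin-induced reporter signal.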 The note with it: XBP1 reporter cell assay, percent of control. Background: A counterscreen serves to expose hits that act by an unwanted route or on another target.
Turning to `NC(=O)c1cc(-c2ccccc2)nc(N2CCCCCC2)n1`, the IC50 entry was “inactive”.

Take `O=[N+]([O-])c1ccc(-c2nc(C(Cl)Cl)c3ccccc3n2)cc1`: the pIC50 was 5.87.

With `CC1=C/C(=N\OS(=O)(=O)c2ccccc2)C(C)=CC1=O`, the pIC50 was 5.57.

For the molecule `Cc1cc(C)c(S(=O)(=O)NCCn2c(C)cc3ccccc32)c(C)c1`, the IC50 is > 10 µM (inactive).

Regarding `O=Nc1ccc(O)c2ncccc12`, the pIC50 is 5.29.

Regarding `O=C(CCl)Nc1ccc(Sc2ccc(NC(=O)CCl)cc2)cc1`, the pIC50 was 5.36.

Take `O=C(Nc1ccc(-c2nc3ccccc3s2)cc1)C1=COCCO1`: the IC50 result was “inactive”.

For the molecule `O=C(COc1ccc(Cl)cc1Cl)Nc1ccccn1`, the IC50 entry was “inactive”.

`Cc1cc(/C=N/n2cnnc2)c(C)n1-c1ccc(OCc2ccc(F)cc2)cc1`: the IC50 entry is “inactive”.

Take `CCN(CCO)c1ncnc2c1sc1nc(C(C)C)c3c(c12)CC(C)(C)OC3`: the IC50 was > 10 µM (inactive).

Take `O=C1NC[C@@H](Cc2cccc3ccccc23)N(CCc2cc(C(F)(F)F)cc(C(F)(F)F)c2)C1=O`: the IC50 result is “inactive”.

With `O=C1c2ccccc2C(=O)C1c1nccc2ccccc12`, the IC50 result was “inactive”.

As to `CC(=O)OCC1O[C@@H](O[C@@H]2C[C@H]3C(C)(C)[C@H](OC(C)=O)CC[C@]3(C)[C@H]3CC[C@]45C[C@]4(CC[C@H]5[C@@H](C)C[C@@H](O)[C@H](O)C(C)(C)O)[C@@]32C)[C@H](O)[C@@H](O)[C@@H]1O` (some centres undefined), the IC50 result was “inactive”.

Take `Nc1nnnn1/N=C/C(Br)=C/c1ccccc1`: the IC50 is > 10 µM (inactive).

Turning to `CC(C)(C)c1ccc(OCCNC(=S)Nc2ccccc2)cc1`, the IC50 result was “inactive”.

As to `CCNC(=S)N/N=C/c1cc(Br)cc(Br)c1OC`, the IC50 was > 10 µM (inactive).

With `COC(=O)c1c(NC(=O)Nc2ccc(Cl)cc2)sc(C)c1C`, the IC50 was > 10 µM (inactive).

For the molecule `O=C(/C=C/c1cccc([N+](=O)[O-])c1)n1cnc2ccccc21`, the IC50 result is “inactive”.

With `C/C=C(\C)C(=O)OC1C(C)=C2C(C1OC(=O)CCCCC)C(C)(OC(C)=O)CC(OC(=O)CCC)C1(O)C2OC(=O)C1(C)O` (centres undefined), the pIC50 was 5.30.

Take `O=S(=O)(N/N=C/c1ccc(Cl)cc1)c1ccc(Cc2ncc(C(F)(F)F)cc2Cl)s1`: the IC50 result is “inactive”.

In the case of `COc1cc(/C=C2\CC/C(=C\c3cc(OC)c(O)c(OC)c3)C2=O)cc(OC)c1O`, the IC50 result is “inactive”.

For the molecule `CCc1ccc(/C=c2\s/c(=C\C(=O)C(C)(C)C)[nH]c2=O)cc1`, the IC50 entry was “inactive”.

Turning to `C=C(C(=O)c1ccccc1)C(C)C(=C)C(=O)c1ccccc1`, the IC50 entry is “inactive”.

With `CCCCc1c(C)nn(-c2nnc3c4ccccc4n(CC)c3n2)c1C`, the IC50 was > 10 µM (inactive).

As to `CC(CNC(=S)Nc1cc(F)cc(F)c1)CSc1ccc(Cl)cc1` (centres undefined), the IC50 was > 10 µM (inactive).

For the molecule `CC(C)Oc1ccc(CNC(=S)N/N=C/c2ccc([N+](=O)[O-])cc2)cc1`, the IC50 is > 10 µM (inactive).

Turning to `Cc1nc2ccccn2c1C(=O)N=Nc1c(O)n(CCC(C)C)c2ccccc12`, the IC50 was > 10 µM (inactive).

`O=C(CNC1CCCCCC1)Nc1ccccc1N1CCCCC1`: the IC50 entry is “inactive”.

`CC1(C)C[C@H]2C=C(C=O)[C@]3(C=O)C[C@]3(C)[C@H]2C1`: the pIC50 was 5.63.

Regarding `Cc1nn(C(C)(C)C)c(C)c1/C=N/OC(=O)Nc1ccc(Cl)cc1`, the pIC50 was greater than 6.80.

Consider `CC(C)(C)C1CCC(C(=O)OCC(=O)c2ccc[nH]2)CC1` (centres undefined), for which the IC50 entry was “inactive”.

Consider `O=[N+]([O-])c1cc(S(=O)(=O)C(F)(F)F)ccc1Sc1nc2ccccc2[nH]1`, for which the IC50 result is “inactive”.

As to `CCOC(=O)c1sc(N=Nc2c(O)[nH]c(=O)[nH]c2=O)c(C(=O)OCC)c1C`, the IC50 was > 10 µM (inactive).

`Cc1ccc2c(C)nc(Nc3nc(CSc4nc5ccccc5[nH]4)cc(=O)[nH]3)nc2c1`: the IC50 entry was “inactive”.

For the molecule `CC1CCN(C(=O)/C(=C/c2ccccc2Cl)c2ccccc2)CC1`, the IC50 entry was “inactive”.

For `O=C(NCc1nc(-c2ccc(C(F)(F)F)cc2)no1)Nc1cc(Cl)cc(Cl)c1`, the IC50 entry is “inactive”.

`Cc1ccc(-c2nc(C(Cl)Cl)c3ccccc3n2)cc1`: the pIC50 is 5.28.

As to `CC(C)CCn1c(=O)c(C(=O)N/N=C/c2cccc(F)c2)c(O)c2ccccc21`, the pIC50 was 5.46.

`COc1ccc(-c2nn(-c3ccccc3)cc2/C=N/N2C(=O)CSC2=S)cc1`: the IC50 is > 10 µM (inactive).

`COc1ccc2c(C)nc(Nc3nc(C)c(C)c(=O)[nH]3)nc2c1`: the pIC50 was greater than 6.80.

Regarding `Cc1cccc(C)c1N1CCN(c2ccc3nnc(C(F)(F)F)n3n2)CC1`, the IC50 is > 10 µM (inactive).

For the molecule `CN(CCCC[C@H](CNCc1ccc(-c2ccccc2)cc1)N1C[C@H](c2ccccc2)N(CCc2ccc(Cl)c(Cl)c2)C(=O)C1=O)Cc1ccc(-c2ccccc2)cc1`, the IC50 entry was “inactive”.

For `O=C1C(=C2SCCCS2)CC/C1=C\c1ccc(F)cc1`, the pIC50 was 5.50.

For the molecule `Cn1c(=O)[nH]c(=O)c2c1nc([N+](=O)[O-])n2Cc1ccccc1`, the IC50 entry is “inactive”.

For `FC(F)(F)c1cccc(NC(=S)Nc2ccc(Cl)cc2Cl)c1`, the IC50 is > 10 µM (inactive).

In the case of `OCCCNc1cc(-c2ccnc(Nc3cccc(Cl)c3)n2)ccn1`, the pIC50 was greater than 6.80.

`CCc1ccc(NP(=O)(Oc2ccccc2F)Oc2ccccc2F)cc1`: the IC50 was > 10 µM (inactive).

`O=C1CC(c2cccc(Cl)c2)CC(O)=C1C=Nc1cccc(Cl)c1` (centres undefined): the IC50 was > 10 µM (inactive).

With `Cc1nc(NC(=O)CSc2nc3cccnc3n2Cc2ccccc2)sc1C`, the IC50 was > 10 µM (inactive).

Take `COc1cc(/C=N/O)cc(Br)c1OCc1cccc(Cl)c1`: the IC50 entry is “inactive”.

For `CCOc1cc(CNc2ccc(O)cc2)ccc1OCc1ccc(Cl)cc1Cl`, the IC50 result is “inactive”.

As for `CCCOC(=O)c1ccc(Oc2cn[nH]c2-c2ccc(OC)cc2O)cc1`, the pIC50 is 5.32.

Take `CC1CCC(C(C)C)C(OC(=O)COC(=O)c2cc(O)ccc2N)C1` (centres undefined): the IC50 entry is “inactive”.

With `Cc1cc(/C=N/n2cnnc2)c(C)n1-c1ccc(OCc2ccc(Cl)cc2Cl)cc1`, the pIC50 was 6.46.

Turning to `OC(CNCCc1ccc(C(F)(F)F)cc1)COc1cccc2ccccc12` (centres undefined), the IC50 was < 0.16 µM (inactive).

For the molecule `Cc1cccc(/C=C2/S/C(=N/N=C3\CC4CCC3(C)C4(C)C)NC2=O)c1` (centres undefined), the IC50 entry is “inactive”.

Regarding `C#CC(=O)N(c1cc(OC)ccc1OC)C(C(=O)NC1CCCC1)c1cccs1` (centres undefined), the IC50 entry was “inactive”.

`CC1CCc2cc(F)ccc2N1C(=O)CSc1nnc2c(n1)[nH]c1ccc(F)cc12` (centres undefined): the IC50 was > 10 µM (inactive).

As for `O=S1(=O)C=C(Sc2nnc(-c3ccccc3)o2)c2ccccc21`, the IC50 result was “inactive”.

`CCCCCCNC(=O)CC(c1ccccc1)c1cc(Br)ccc1O` (centres undefined): the IC50 result was “inactive”.

Turning to `COc1ccc(NC(=O)/C(Cl)=C(/Cl)S(=O)(=O)Cc2ccc(C)cc2)cn1`, the IC50 result is “inactive”.

Take `Cc1ccccc1/C=N/Nc1ccnc2cc(Cl)ccc12`: the IC50 was > 10 µM (inactive).

As to `O=C(CCl)Nc1cn(-c2ccccc2)nc1-c1ccccc1`, the IC50 result was “inactive”.

Regarding `COc1ccc(Cc2nc3ccccc3n2CC(=O)N/N=C/c2ccc(C)cc2O)cc1OC`, the IC50 is > 10 µM (inactive).

As usually defined, the IC50 is the concentration needed to halve the response being measured. Usually pIC50 stands for the negative decadic logarithm of the IC50, by convention in mol/L.

Source of the values: PubChem BioAssay AID504313 (Emory University Molecular Libraries Screening Center, 2011).
